“Also recorded” adds a separate entry of the source. Where two headings read alike, the source gives them in different places.
Legend:
[1] = tested on: insect TRPV channel (Drosophila Nanchung and Inactive co-expressed); format: cell-based; conditions: for Inhibition of stimulation of the insect TRPV channel: cell-impermeable ion channel blocker; for Ca2+ mobilization in cells co-expressing Nan and Iav (insect TRPV channel), in words: FLUO4 probe; for Dependence of the cell response on Ca2+ in the extracellular media: insect TRPV-expressing cells; for Response of cells (fluorescence units), Insect TRPV cells: single high dose 20 μM
[2] = tested on: parental CHO-K1 cells; format: cell-based, hamster
[3] = molecular target: mouse TRPV4 (mTRPV4) (Mus musculus, UniProt Q9EPK8); assay: Ca2+ mobilization (FLUO4, FLIPR) in CHO-K1 cells expressing mTRPV4; format: cell-based; conditions: for Ca2+ mobilization in cells expressing mTRPV4, in words: FLUO4 probe
Chain of mouse TRPV4 (mTRPV4) (Q9EPK8 whole entry): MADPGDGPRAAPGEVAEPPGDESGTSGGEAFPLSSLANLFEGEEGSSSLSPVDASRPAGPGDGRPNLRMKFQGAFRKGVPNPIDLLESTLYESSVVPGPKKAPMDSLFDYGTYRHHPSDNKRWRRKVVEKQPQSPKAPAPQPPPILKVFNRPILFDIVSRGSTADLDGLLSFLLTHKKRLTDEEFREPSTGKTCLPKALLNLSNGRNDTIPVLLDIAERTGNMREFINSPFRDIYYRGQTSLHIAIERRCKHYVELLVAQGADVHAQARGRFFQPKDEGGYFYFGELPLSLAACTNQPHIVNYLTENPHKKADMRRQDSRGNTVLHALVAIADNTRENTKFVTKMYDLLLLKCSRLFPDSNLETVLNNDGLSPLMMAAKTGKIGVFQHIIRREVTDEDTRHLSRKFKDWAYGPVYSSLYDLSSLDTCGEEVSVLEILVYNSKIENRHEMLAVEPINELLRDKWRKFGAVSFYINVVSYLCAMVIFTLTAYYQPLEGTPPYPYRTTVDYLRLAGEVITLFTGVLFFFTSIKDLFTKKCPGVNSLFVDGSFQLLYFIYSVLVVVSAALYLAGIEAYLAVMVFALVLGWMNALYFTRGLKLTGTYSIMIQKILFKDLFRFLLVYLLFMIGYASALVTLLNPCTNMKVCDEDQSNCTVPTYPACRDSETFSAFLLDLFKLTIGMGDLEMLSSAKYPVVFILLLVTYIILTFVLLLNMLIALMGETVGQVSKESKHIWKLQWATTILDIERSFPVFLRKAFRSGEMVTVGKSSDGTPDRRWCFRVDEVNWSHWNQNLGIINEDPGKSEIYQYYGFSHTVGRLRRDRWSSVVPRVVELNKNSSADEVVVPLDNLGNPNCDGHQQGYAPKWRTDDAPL

[4] = single high dose 20 μM, parental CHO-K1 cells
[5] = listed as metabolite B of Pyrifluquinazon
[6] = single high dose 20 μM, CHO-K1 cells expressing mTRPV4
[7] = CHO-K1 cells expressing insect TRPV

Compound	Response of cells (fluorescence units), Parental CHO cells [2, 4]	Response of cells (fluorescence units), mTRPV4 cells [3, 6]	Response of cells (fluorescence units), Insect TRPV cells [1, 7]	further results
N.N.N.N.N.N.N.N.N.N.N.N.N.N.[Cl-].[Cl-].[Cl-].[Cl-].[Cl-].[Cl-].[O-2].[O-2].[Ru+3].[Ru+3].[Ru+4] [Ruthenium red]				Inhibition of stimulation of the insect TRPV channel [1]: inhibited; Inhibition of stimulation of the insect TRPV channel ([1]; listed as ruthenium red): inhibition of the response
O=C1Nc2ccc(C(F)(C(F)(F)F)C(F)(F)F)cc2CN1NCc1cccnc1 [Pyrifluquinazon metabolite B]	40 fluorescence units	346 fluorescence units	538 fluorescence units	Potency against mouse TRPV4 relative to Drosophila TRPV channel [3]: ~100 fold; Ca2+ mobilization in cells expressing mTRPV4, in words [3]: weak activation; Ca2+ mobilization in cells expressing mTRPV4, in words [3, 5]: did trigger Ca^2+ mobilization; Potency relative to the parental compound pyrifluquinazon [1]: about 100 fold; Ca2+ mobilization in cells co-expressing Nan and Iav (insect TRPV channel), in words [1]: activation of insect TRPV channel; Ca2+ mobilization in cells co-expressing Nan and Iav (insect TRPV channel), in words [1, 5]: triggered Ca^2+ mobilization; Dependence of the cell response on Ca2+ in the extracellular media [1]: requires presence of Ca^2+ in the extracellular media
CC(=O)OCC[N+](C)(C)C [Acetylcholine]	797 fluorescence units		250 fluorescence units	
CN/C(=N/CC1CCOC1)N[N+](=O)[O-] (centres unmarked) [Dinotefuran]		23 fluorescence units	48 fluorescence units	Response of cells (fluorescence units), Parental CHO cells [2]: 23 fluorescence units
Ryanodine	75 fluorescence units	19 fluorescence units		Response of cells (fluorescence units), Insect TRPV cells ([1]; […]): 53 fluorescence units
N#Cc1nn(-c2c(Cl)cc(C(F)(F)F)cc2Cl)c(N)c1[S+]([O-])C(F)(F)F (centres unmarked) [Fipronil]	240 fluorescence units	60 fluorescence units	133 fluorescence units	
CN1CCN2c3ccccc3Cc3ccccc3C2C1 (centres unmarked) [Miansenn]	110 fluorescence units	30 fluorescence units		Response of cells (fluorescence units), Insect TRPV cells ([1]; […]): 86 fluorescence units
NCCCC(=O)O [GABA]	100 fluorescence units	43 fluorescence units	68 fluorescence units	
NCC(O)c1ccc(O)cc1 (centres unmarked) [Octopamine]	45 fluorescence units	20 fluorescence units	66 fluorescence units	
O=[N+]([O-])NC1=NCCN1Cc1ccc(Cl)nc1 [Imidacloprid]	69 fluorescence units	16 fluorescence units	42 fluorescence units	
Clc1cccc(Cl)c1N=C1NCCN1 [Clonidine]			135 fluorescence units	Response of cells (fluorescence units), Parental CHO cells [2]: 136 fluorescence units; Response of cells (fluorescence units), mTRPV4 cells [3]: 62 fluorescence units
Abamectin	52 fluorescence units	30 fluorescence units	49 fluorescence units	
c1ccc2c(CC3=NCCN3)cccc2c1 [Naphazoline]	50 fluorescence units	11 fluorescence units	31 fluorescence units	
N#C/N=C1\SCCN1Cc1ccc(Cl)nc1 [Thiacloprid]	29 fluorescence units	16 fluorescence units	36 fluorescence units	
ClC1=C(Cl)[C@]2(Cl)[C@@H]3[C@@H]4C[C@@H]([C@H]5O[C@@H]45)[C@@H]3[C@@]1(Cl)C2(Cl)Cl [Dieldrin]	73 fluorescence units	52 fluorescence units	78 fluorescence units	
Cc1ccc(/N=C/N(C)/C=N/c2ccc(C)cc2C)c(C)c1 [Amitraz]	50 fluorescence units	25 fluorescence units	58 fluorescence units	
CC(=O)N1C(=O)N(NCc2cccnc2)Cc2cc(C(F)(C(F)(F)F)C(F)(F)F)ccc21 [pyrifluquinazon]				Ca2+ mobilization in cells co-expressing Nan and Iav (insect TRPV channel), in words [1]: triggered Ca^2+ mobilization; Dependence of the cell response on Ca2+ in the extracellular media [1]: absolutely dependent on the presence of Ca^2+ in the extracellular media
Clc1ccc(C2CC3CCC2N3)cn1 (centres unmarked) [Epibatidine]	49 fluorescence units	63 fluorescence units		Response of cells (fluorescence units), Insect TRPV cells ([1]; […]): 70 fluorescence units
CN1CCCC1c1cccnc1 (centres unmarked) [Nicotine]			81 fluorescence units	Response of cells (fluorescence units), Parental CHO cells [2]: 65 fluorescence units; Response of cells (fluorescence units), mTRPV4 cells [3]: 8 fluorescence units
Cl[C@H]1[C@H](Cl)[C@@H](Cl)[C@@H](Cl)[C@H](Cl)[C@H]1Cl [Lindane]	19 fluorescence units	12 fluorescence units	35 fluorescence units	
CC[S+]([O-])c1c(C#N)nn(-c2c(Cl)cc(C(F)(F)F)cc2Cl)c1N (centres unmarked) [Ethiprole]	357 fluorescence units	113 fluorescence units	154 fluorescence units	
CC(C)C[C@H](NC(=O)c1cc2ccccc2s1)C(=O)N1CCN(C(=O)[C@H](CO)NS(=O)(=O)c2ccc(Cl)cc2Cl)CC1 [GSK1016790A, N-((1 S)-1-{[4-((2 S)-2-{[(2,4-dichlorophenyl)sulfonyl]amino}-3-hydroxypropanoyl)-1-piperazinyl]carbonyl}-3-methylbutyl)-1-benzothiophene-2-carboxamide]	71 fluorescence units	2017 fluorescence units	53 fluorescence units	Ca2+ mobilization in cells expressing mTRPV4, in words [3]: induced strong Ca^2+ mobilization response; also recorded: strong activation
CC1=NNC(=O)N(/N=C/c2cccnc2)C1 [pymetrozine]				Ca2+ mobilization in cells expressing mTRPV4, in words ([3]; listed as Pymetrozine): had no effect; Ca2+ mobilization in cells co-expressing Nan and Iav (insect TRPV channel), in words [1]: triggered Ca^2+ mobilization; also recorded: activation of insect TRPV channel; Ca2+ mobilization in cells co-expressing Nan and Iav (insect TRPV channel), in words ([1]; listed as Pymetrozine): triggered Ca^2+ mobilization
CNC(=O)c1cc(Cl)cc(C)c1NC(=O)c1cc(Br)nn1-c1ncccc1Cl [Rynaxapyr]	93 fluorescence units	74 fluorescence units	43 fluorescence units	
